Source: PubChem BioAssay (NCI)
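In this assay, cells in 96-well plates receive the compound at five concentrations for 48 hours. Endpoints are linearly interpolated between the surrounding concentrations. Definition used: TGI = concentration required for complete inhibition of growth.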

Legend:
Assay in all cases: NCI-60 cell line screen, 48 h
[1] = tested on: HT29 colon
[2] = tested on: CCRF-CEM leukemia
[3] = tested on: SW-620 colon
[4] = tested on: HCT-116 colon
[5] = tested on: NCI-H522 lung
[6] = tested on: SN12C renal
[7] = tested on: T-47D breast
[8] = tested on: SK-OV-3 ovarian
[9] = tested on: HOP-92 NSCLC
[10] = tested on: MDA-N
[11] = tested on: IGROV1 ovarian
[12] = tested on: U251 CNS
[13] = tested on: NCI-H23 lung
[14] = tested on: MDA-MB-231 breast
[15] = tested on: PC-3 prostate
[16] = tested on: SNB-19 CNS
[17] = tested on: A498 renal
[18] = tested on: SF-268 CNS
[19] = tested on: MALME-3M melanoma
[20] = tested on: TK-10 renal
[21] = tested on: SK-MEL-2 melanoma
[22] = tested on: A549 NSCLC
[23] = tested on: ACHN renal
[24] = tested on: UO-31 renal
[25] = tested on: SK-MEL-28 melanoma
[26] = tested on: EKVX NSCLC
[27] = tested on: HOP-62 NSCLC
[28] = tested on: KM12 colon
[29] = tested on: UACC-62 melanoma
[30] = tested on: BT-549 breast
[31] = tested on: OVCAR-8 ovarian
[32] = tested on: HCT-15 colon
[33] = tested on: HCC-2998 colon
[34] = tested on: LOX IMVI melanoma
[35] = tested on: HL-60(TB) leukemia
[36] = tested on: MCF7 breast
[37] = tested on: MDA-MB-435
[38] = tested on: NCI/ADR-RES ovarian
[39] = tested on: OVCAR-4 ovarian
[40] = tested on: MOLT-4 leukemia
[41] = tested on: SK-MEL-5 melanoma
[42] = tested on: M14 melanoma
[43] = tested on: SR leukemia
[44] = tested on: RPMI-8226 leukemia
[45] = tested on: NCI-H460 lung
[46] = tested on: OVCAR-3 ovarian
[47] = tested on: NCI-H226 lung
[48] = tested on: 786-0 renal
[49] = tested on: SF-295 CNS
[50] = tested on: UACC-257 melanoma
[51] = tested on: HS 578T breast
[52] = tested on: COLO 205 colon
[53] = tested on: K-562 leukemia
[54] = tested on: CAKI-1 renal
[55] = tested on: OVCAR-5 ovarian
[56] = tested on: SF-539 CNS
[57] = tested on: SNB-75 CNS
[58] = tested on: RXF 393 renal
[59] = tested on: DU-145 prostate

SMILES: COC1=C[C@]2(CCC(=O)O2)[C@@H]2Cc3ccccc3[C@H](O)[C@@H]2C1=O
- TGI [1]: > 100 µM
- TGI [2]: 35.8 µM
- TGI [3]: 88.8 µM
- TGI [4]: > 100 µM
- TGI [5]: 44.4 µM
- TGI [6]: > 100 µM
- TGI [7]: 37.7 µM
- TGI [8]: > 100 µM
- TGI [9]: > 100 µM
- TGI [10]: 30.1 µM
- TGI [11]: > 100 µM
- TGI [12]: 79.6 µM
- TGI [13]: > 100 µM
- TGI [14]: > 100 µM
- TGI [15]: > 100 µM
- TGI [16]: > 100 µM
- TGI [17]: > 100 µM
- TGI [18]: > 100 µM
- TGI [19]: 50.2 µM
- TGI [20]: > 100 µM
- TGI [21]: 96.2 µM
- TGI [22]: > 100 µM
- TGI [23]: > 100 µM
- TGI [24]: > 100 µM
- TGI [25]: > 100 µM
- TGI [26]: > 100 µM
- TGI [27]: > 100 µM
- TGI [28]: > 100 µM
- TGI [29]: 65.1 µM
- TGI [30]: > 100 µM
- TGI [31]: > 100 µM
- TGI [32]: > 100 µM
- TGI [33]: > 100 µM
- TGI [34]: 87.3 µM
- TGI [35]: 77.6 µM
- TGI [36]: > 100 µM
- TGI [37]: 31 µM
- TGI [38]: > 100 µM
- TGI [39]: > 100 µM
- TGI [40]: 38.9 µM
- TGI [41]: 33.7 µM
- TGI [42]: > 100 µM
- TGI [43]: 41.4 µM
- TGI [44]: 38.5 µM
- TGI [45]: > 100 µM
- TGI [46]: > 100 µM
- TGI [47]: > 100 µM
- TGI [48]: > 100 µM
- TGI [49]: > 100 µM
- TGI [50]: 62 µM
- TGI [51]: > 100 µM
- TGI [52]: > 100 µM
- TGI [53]: > 100 µM
- TGI [54]: > 100 µM
- TGI [55]: > 100 µM

SMILES: O=P(O)(O)c1ccc(-c2ccc(I)cc2)cc1
- TGI [56]: > 100 µM
- TGI [1]: > 100 µM
- TGI [2]: > 100 µM
- TGI [3]: > 100 µM
- TGI [4]: > 100 µM
- TGI [5]: > 100 µM
- TGI [6]: > 100 µM
- TGI [7]: > 100 µM
- TGI [8]: > 100 µM
- TGI [10]: > 100 µM
- TGI [11]: > 100 µM
- TGI [12]: > 100 µM
- TGI [13]: > 100 µM
- TGI [14]: > 100 µM
- TGI [15]: > 100 µM
- TGI [16]: > 100 µM
- TGI [18]: > 100 µM
- TGI [19]: > 100 µM
- TGI [57]: > 100 µM
- TGI [20]: > 100 µM
- TGI [21]: > 100 µM
- TGI [22]: > 100 µM
- TGI [23]: > 100 µM
- TGI [24]: > 100 µM
- TGI [58]: > 100 µM
- TGI [25]: > 100 µM
- TGI [26]: > 100 µM
- TGI [27]: > 100 µM
- TGI [59]: > 100 µM
- TGI [28]: > 100 µM
- TGI [29]: > 100 µM
- TGI [30]: > 100 µM
- TGI [31]: > 100 µM
- TGI [32]: > 100 µM
- TGI [33]: > 100 µM
- TGI [34]: > 100 µM
- TGI [35]: > 100 µM
- TGI [36]: > 100 µM
- TGI [38]: > 100 µM
- TGI [39]: > 100 µM
- TGI [40]: > 100 µM
- TGI [41]: > 100 µM
- TGI [42]: > 100 µM
- TGI [43]: > 100 µM
- TGI [44]: > 100 µM
- TGI [45]: > 100 µM
- TGI [47]: > 100 µM
- TGI [48]: > 100 µM
- TGI [50]: > 100 µM
- TGI [51]: > 100 µM
- TGI [52]: > 100 µM
- TGI [53]: > 100 µM
- TGI [54]: > 100 µM
- TGI [55]: > 100 µM

SMILES: CNC(=O)N(CCC#N)CCN(C(=O)NC)c1ccccc1
- TGI [56]: > 100 µM
- TGI [1]: > 100 µM
- TGI [2]: > 100 µM
- TGI [3]: > 100 µM
- TGI [4]: > 100 µM
- TGI [5]: > 100 µM
- TGI [6]: > 100 µM
- TGI [7]: > 100 µM
- TGI [8]: > 100 µM
- TGI [9]: > 100 µM
- TGI [10]: > 100 µM
- TGI [11]: > 100 µM
- TGI [12]: > 100 µM
- TGI [13]: > 100 µM
- TGI [14]: > 100 µM
- TGI [15]: > 100 µM
- TGI [16]: > 100 µM
- TGI [17]: > 100 µM
- TGI [18]: > 100 µM
- TGI [19]: > 100 µM
- TGI [57]: > 100 µM
- TGI [20]: > 100 µM
- TGI [21]: > 100 µM
- TGI [22]: > 100 µM
- TGI [23]: > 100 µM
- TGI [24]: > 100 µM
- TGI [58]: > 100 µM
- TGI [25]: > 100 µM
- TGI [26]: > 100 µM
- TGI [27]: > 100 µM
- TGI [59]: > 100 µM
- TGI [28]: > 100 µM
- TGI [29]: > 100 µM
- TGI [30]: > 100 µM
- TGI [31]: > 100 µM
- TGI [32]: > 100 µM
- TGI [33]: > 100 µM
- TGI [34]: > 100 µM
- TGI [36]: > 100 µM
- TGI [37]: > 100 µM
- TGI [38]: > 100 µM
- TGI [39]: > 100 µM
- TGI [40]: > 100 µM
- TGI [41]: > 100 µM
- TGI [42]: > 100 µM
- TGI [43]: > 100 µM
- TGI [44]: > 100 µM
- TGI [45]: > 100 µM
- TGI [46]: > 100 µM
- TGI [47]: > 100 µM
- TGI [48]: > 100 µM
- TGI [49]: > 100 µM
- TGI [50]: > 100 µM
- TGI [52]: > 100 µM
- TGI [53]: > 100 µM
- TGI [54]: > 100 µM
- TGI [55]: > 100 µM
